This is an account of results in ChEMBL document CHEMBL4261583, “Discovery of potent calpain inhibitors based on the azolo-imidazolidenone scaffold” (Eur J Med Chem, 2018).

The target in data set [1] is T1, Calpain-1 catalytic subunit (Homo sapiens) (UniProt P07384).
T1 sequence (whole entry): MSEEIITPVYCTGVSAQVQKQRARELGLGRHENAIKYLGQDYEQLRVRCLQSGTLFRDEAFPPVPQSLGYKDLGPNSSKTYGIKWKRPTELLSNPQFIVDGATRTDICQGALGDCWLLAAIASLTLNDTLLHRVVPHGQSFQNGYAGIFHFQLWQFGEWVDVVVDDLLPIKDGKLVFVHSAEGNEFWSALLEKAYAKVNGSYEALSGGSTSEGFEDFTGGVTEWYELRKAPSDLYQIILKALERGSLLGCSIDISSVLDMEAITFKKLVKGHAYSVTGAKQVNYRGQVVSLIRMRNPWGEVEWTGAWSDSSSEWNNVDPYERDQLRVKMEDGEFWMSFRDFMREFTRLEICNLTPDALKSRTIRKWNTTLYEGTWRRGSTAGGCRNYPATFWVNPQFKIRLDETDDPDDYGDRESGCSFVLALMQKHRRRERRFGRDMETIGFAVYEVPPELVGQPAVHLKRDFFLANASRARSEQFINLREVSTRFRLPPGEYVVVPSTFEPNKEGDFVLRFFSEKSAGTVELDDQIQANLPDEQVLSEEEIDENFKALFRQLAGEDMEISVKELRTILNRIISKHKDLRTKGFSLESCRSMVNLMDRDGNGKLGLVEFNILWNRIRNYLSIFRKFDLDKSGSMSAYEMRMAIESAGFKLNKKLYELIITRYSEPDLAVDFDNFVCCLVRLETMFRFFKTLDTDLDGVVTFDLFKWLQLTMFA
Put plainly: Inhibition of calpain (unknown origin) at 1 uM using Suc-LY-AMC as fluorogenic substrate after 60 mins by spectrofluorometric analysis relative to calpeptin.

In data set [2] the target is T2, Calpain-1 catalytic subunit (Homo sapiens, UniProt P07384).
T2 sequence (P07384 whole entry): T1 sequence (whole entry)
Nature of the data set: Inhibition of calpain (unknown origin) using Suc-LY-AMC as fluorogenic substrate after 60 mins by spectrofluorometric analysis.

Data set [3] has as its system HK-2. Put plainly: Induction of apoptosis in human HK2 cells at 1 uM after 24 hrs by propidium iodide staining-based flow cytometric analysis (reference value: 3.8 +/- 1%). It is filed as cell-based. The settings on record: hk-2, 24 h.
The test system of data set [4] is HK-2. Put plainly: Cytoprotective activity against NaN3-induced apoptosis in human HK2 cells at 1 uM pre-incubated with 200 mM NaN3 for 30 mins followed by 24 hrs recovery with compound propidium iodide staining-based flow cytometric analysis (reference value: 27.3 +/- 4.9%). It is filed as functional. In general terms: Flow cytometry measures light scatter and fluorescence of single cells or particles in a stream.

Data set [5] concerns the target T1, Calpain-1 catalytic subunit (Homo sapiens). Put plainly: Uncompetitive inhibition of calpain (unknown origin) at 1 to 10 uM using Suc-LY-AMC as fluorogenic substrate after 60 mins by Lineweaver-Burk plot analysis.
The test system of data set [6] is HK-2. Nature of the data set: Cytoprotective activity against NaN3-induced apoptosis in human HK2 cells at 0.1 to 10 uM pre-incubated with NaN3 for 30 mins followed by 24 hrs recovery with compound propidium iodide staining-based flow cytometric analysis. It is filed as functional, cell-based.
Data set [7] has as its system HK-2. Put plainly: Cytotoxicity against human HK2 cells at 0.1 to 10 uM after 24 hrs by MTT assay. The note with it: hk-2, 24 h. It is filed as cell-based. (Tetrazolium assays rely on reduction of a dye to a coloured formazan, in cell work by metabolically active cells.)

SMILES strings stand for the structures. Activity calls are given as the source filed them. No cut-off for these calls is given here.

One may read the inhibition as how much of the control response was suppressed. For the molecule `CC(C)N/C(=C1/N=CN(C(C)C)C1=O)c1cc2cccnc2[nH]1`, in data set [1], the inhibition came to 37.2%.
Molecule `CCCCN/C(=C1/N=CN(CCCC)C1=O)c1cc2ccccc2[nH]1` had an inhibition in data set [1] of 14%.
The IC50 is the concentration at which inhibition is half-maximal. `COCCN/C(=C1/N=C(C)N(CCOC)C1=O)c1cc2ccccc2[nH]1` returned an IC50 in data set [2] of 20 nM. Besides, the inhibition in data set [1] was determined as 93%.
`COCCN/C(=C1/N=CN(CCOC)C1=O)c1cc2cccnc2[nH]1` gave an IC50 in data set [2] of 380 nM. Also, the inhibition in data set [1] was 79.4%.
For the molecule `CCCCN/C(=C1/N=CN(CCOC)C1=O)c1cc2ccccc2[nH]1`, it took 350 nM to reach half-maximal inhibition in data set [2] (IC50). Also, the inhibition in data set [1] came to 75.4%.
With `CCCC[C@@H](C=O)NC(=O)[C@H](CC(C)C)NC(=O)OCc1ccccc1` [CALPEPTIN], the values for the Activity in data set [3] and in data set [4] were 5.9% and 9.9%, respectively.
As for `O=C1/C(=C(\NCc2ccccc2)c2cc3ccccc3[nH]2)N=CN1Cc1ccccc1`, the inhibition in data set [1] was determined as 28.2%.
Same read-out and setting: the value for `O=C1/C(=C(\NC2CCCCC2)c2cc3cccnc3[nH]2)N=CN1C1CCCCC1` was 4.5%.
In data set [2], `CC(C)N/C(=C1/N=CN(C(C)C)C1=O)c1cc2ccccc2[nH]1` had an IC50 of more than 1000 nM. The inhibition in data set [1] was determined as 57.8%.
In data set [1], `O=C1/C(=C(\NC2CCCCC2)c2cc3ccccc3[nH]2)N=CN1C1CCCCC1` had an inhibition of 9%.
Molecule `COCCN/C(=C1/N=CN(CCOC)C1=O)c1[nH]c2ccccc2c1I` displayed an IC50 in data set [2] of 1080 nM. Also, the inhibition in data set [1] was determined as 76.8%.
Consider `O=C1/C(=C(\NCc2ccccc2)c2cc3cccnc3[nH]2)N=CN1Cc1ccccc1`, for which the inhibition in data set [1] was 11.7%.
Regarding `COCCCN/C(=C1/N=CN(CCOC)C1=O)c1cc2ccccc2[nH]1`, it took 1020 nM to reach half-maximal inhibition in data set [2] (IC50). The molecule further came in with an inhibition in data set [1] of 71.8%.
Regarding `COCCN/C(=C1/N=CN(CCOC)C1=O)c1cc2ccccc2[nH]1`, the inhibition entry in data set [5] is “Active”. In addition, the result in data set [6] was Active. Further, in data set [7], the Activity result was “Non-Toxic”. This molecule also had an IC50 in data set [2] of 460 nM. The molecule also came in with an inhibition in data set [1] of 73.7%.
Consider `COCCN/C(=C1/N=CN(CCOC)C1=O)c1[nH]c2ccccc2c1Br`, for which the IC50 in data set [2] is more than 1000 nM. In data set [1], this molecule showed an inhibition of 62.9%.
Molecule `COCCN/C(=C1/N=C(c2ccccc2)N(CCOC)C1=O)c1cc2ccccc2[nH]1` yielded a half-inhibitory concentration (IC50) in data set [2] of more than 1000 nM. The inhibition in data set [1] was found to be 21.5%.
In data set [2], `COCCN/C(=C1/N=CN(CCOC)C1=O)c1[nH]c2ccccc2c1Cl` returned an IC50 of more than 1000 nM. In addition, the inhibition in data set [1] came out at 71.9%.
Consider `COCCN1C=N/C(=C(/NCCN(C)C)c2cc3ccccc3[nH]2)C1=O`, for which the IC50 in data set [2] is more than 1000 nM. In data set [1], this molecule gave an inhibition of 64.6%.
